Data from patent US20130287688A1, “NOVEL COMPOSITIONS AND USES OF ANTI-HYPERTENSION AGENTS FOR CANCER THERAPY” (XTUIT PHARMACEUTICALS, INC., priority 2010, published 2013).

Tests used:
E0771 tumors [1] = experiment: Solid stress (tumor opening technique); design: species or system mice; conditions: mouse, in vivo
Experimental: Solid stress was assessed using an ex vivo technique involving the measurement of the extent of tumor tissue relaxation (tumor opening relative to tumor diameter) following a stress-releasing incision, with larger openings indicating higher stress.
When the tumors reached a size of −1 cm in diameter, the mice were anesthetized. Subsequently, each tumor was excised, washed with Hanks' Balanced Salt Solution (HBSS) and its three dimensions were measured. Each tumor was cut along its longest axis, to a depth of 80% of its shortest dimension, using a scalpel. The tumors were allowed to relax for 10 minutes in HBSS to diminish any transient, poro-elastic responses. Afterwards, the opening resulting from the cut was measured at the middle of the cut at the surface of the tumor. Solid stress is proportional to the size of the opening relative to the size of the dimension perpendicular to the cut.

[2] = Losartan bioanalysis: plasma and tumor levels (HPLC/FLU); conditions: male, FVB, mouse, subcutaneous
E0771 breast tumors = experiment: Vessel perfusion histology (lectin / CD31); assay type: in vivo, SCID mouse; conditions: 40 mg/kg
E0771 tumors [3] = experiment: Nanoparticle penetration (effective permeability) by intravital multiphoton microscopy; assay type: in vivo, mice
From the text: Penetration rates are quantified as effective permeability, which is the transvascular mass flux per unit vascular surface area and transvascular concentration difference.
Nanoparticle penetration rates were quantified as transvascular mass flux per unit vascular surface area and transvascular concentration difference, termed as the effective permeability.
Images were taken at ˜60 mW at sample surface. Mosaic images were taken in raster pattern using a motorized stage (H101, Prior Scientific) and customized automation software (LabView, National Instruments). Imaging studies were performed with a 20× magnification, 0.95NA water immersion objective (Olympus XLUMPlanFl, 1-UB965, Optical Analysis).
Concentrations were adjusted with in vitro calibration to result in roughly equal photoluminescence intensity for all three nanoparticle samples under 800 nm multiphoton excitation. […] Images were taken every 3 min at each region of interest for a duration of 1 hr. […] The analysis approach involved 3D vessel tracing to create vessel metrics and a 3D map of voxel intensity versus distance to the nearest vessel over time. Images were also corrected for sample movement over time with 3D image registration. The effective permeability was calculated with
Fluorescence intensities were used as these concentrations. The calculation was made as an average over the entire imaged volume for each tumor.

Mu89 tumors [4] = experiment: Distribution of intratumorally injected 100 nm nanoparticles; assay type: in vivo, mice; conditions: 100 nm diameter nanoparticles
From the text: (§1) Based on the previous studies on the tumor interstitial matrix (Pluen A, et al. (2001) Proc Natl Acad Sci USA 98:4628-4633 and Brown E, et al. (2003) Nat Med 9:796-800), the inventors then sought to determine if a decrease in collagen content by Losartan can improve the intratumoral distribution of nanoparticles. The inventors therefore measured the intratumoral distribution of fluorescent polystyrene nanoparticles (100 nm diameter) in three different tumor types—HSTS26T, Mu89, and L3.6 pl—after an i.t. or i.v. injection. In mice injected i.t. with nanoparticles, losartan improved nanoparticle accumulation and penetration in the tumor center (FIG. 8A; HSTS26T p<0.001, Mu89 p<0.001). Conversely, there was little or no nanoparticle accumulation in the center of control tumors. Most of the injected nanoparticles in control tumors were found in the tumor margin and around the needle insertion point (FIG. 8A). The inventors also determined the effects of losartan on the intratumoral distribution of oncolytic HSV.
(§2) Nanoparticles and oncolytic HSV were infused with a syringe pump (Harvard Apparatus Standard Pump 22, Holliston, Mass.) at a flow rate of 4 μl/min. The inventors injected 10 μl of HSV (2.5×10^5 t.u.) expressing the green fluorescent protein (GFP), or 10 μl of fluorescent nanoparticles (diameter of […]; concentration of 1×10^13 nanoparticles/ml). […]

HSTS26T tumors [5] = experiment: as above; assay type: in vivo, mice; conditions: 100 nm diameter nanoparticles
From the text: as §1, §2

Mu89 tumors [6] = experiment: TSP-1 immunostaining of tumor sections; assay type: in vivo, SCID mice; conditions: losartan treatment
From the text: (§3) TSP-1 is a key regulator of TGF-β1 activation and losartan has been reported to reduce TSP-1 expression and TGF-β1 activation in mouse models of Marfan's syndrome and muscular dystrophy (Dietz H C (2010) J Clin Invest 120:403-407). […] In both Mu89 and HSTS26T tumors the immunostaining patterns for TSP-1 (FIGS. 7A-7B) and collagen I (FIGS. 5C-5D) were closely matched. The inventors detected high levels of TSP-1 and collagen I in the tumor margin, while losartan induced obvious reductions in TSP-1 and collagen I levels in the tumor center (FIGS. 5C, 7A).
(§4) Frozen sections were cut into 10 μm sections for immunohistochemistry and imaging. Collagen I was detected using the LF-67 antibody (1:100 dilution) with a previously described protocol (Znati C A, et al. (2003) Clin Cancer Res 9:5508-5513). TSP-1 was detected with a goat anti-human antibody (1:50 dilution), which cross-reacts with mice (sc-12312, Santa Cruz Biotechnology Inc., Santa Cruz, Calif.). For collagen and TSP-1 analysis, images at 20× magnification were taken randomly from each slide. The collagen and TSP-1 content was determined by measuring the number of pixels above a threshold value that was set based on the average intensity value of pixels from all slides under analysis. The background-signal intensity for both collagen I and thrombospondin-1 immunostaining was low and uniform.

HSTS26T tumors [7] = experiment: TSP-1 immunostaining of tumor sections; assay type: in vivo, SCID mice; conditions: losartan treatment
From the text: as §3, §4

HSTS26T tumors [8] = experiment: IgG diffusion by fluorescence recovery after photobleaching (FRAP); assay type: in vivo, SCID mice
Experimental: FIG. 9 is a bar graph showing the changes in diffusion coefficient in HSTS26T tumors after losartan treatment. The diffusion coefficient of IgG was measured in HSTS26T tumors implanted in the dorsal window chamber of SCID mice. Treated animals received (40 mg/kg/day) losartan by i.p. injection while control animals received saline.
Based on the previous studies on the tumor interstitial matrix (Pluen A, et al. (2001) Proc Natl Acad Sci USA 98:4628-4633 and Brown E, et al. (2003) Nat Med 9:796-800), the inventors then sought to determine if a decrease in collagen content by Losartan can improve the intratumoral distribution of nanoparticles. The inventors therefore measured the intratumoral distribution of fluorescent polystyrene nanoparticles (100 nm diameter) in three different tumor types—HSTS26T, Mu89, and L3.6 pl—after an i.t. or i.v. injection. […] The inventors also determined the effects of losartan on the intratumoral distribution of oncolytic HSV.
Mice with HSTS26T tumors implanted in a dorsal skin fold chamber were treated with i.p. injections of losartan (40 mg/kg/day) for 1 week. Fluorescence recovery after photobleaching (FRAP) measurements were done with a custom built multiphoton microscope based on a previously described protocol (Chauhan V P, et al. (2009) Biophys J 97:330-336). […] Matrix pore sizes were calculated using the SFA-FRAP data, using the equation […]

## CCCCc1nc(Cl)c(CO)n1Cc1ccc(-c2ccccc2-c2nn[nH]n2)cc1 [losartan]
E0771 tumors [1]
  solid stress: reduces solid stress
[2]; plasma, 40 mg/kg, Plasma 2 hr level, Day 14, Group 3: losartan subcutaneous injection without pump 40 mg/kg daily
  concentration at 2 h: 423 ng/mL
[2]; plasma, 40 mg/kg, Plasma 2 hr level, Day 19, Group 3: losartan subcutaneous injection without pump 40 mg/kg daily
  concentration at 2 h: 152 ng/mL
[2]; plasma, 40 mg/kg, Plasma 6 hr level, Day 14, Group 3: losartan subcutaneous injection without pump 40 mg/kg daily
  concentration at 6 h: 11 ng/mL
[2]; plasma, 40 mg/kg, Plasma 6 hr level, Day 19, Group 3: losartan subcutaneous injection without pump 40 mg/kg daily
  concentration at 6 h: 28 ng/mL
[2]; plasma, 40 mg/kg/day, Plasma 2 hr level, Day 14, Group 2: losartan via subcutaneous pump 40 mg/kg/day
  concentration at 2 h: 227 ng/mL
[2]; plasma, 40 mg/kg/day, Plasma 2 hr level, Day 19, Group 2: losartan via subcutaneous pump 40 mg/kg/day
  concentration at 2 h: 370 ng/mL
[2]; plasma, 40 mg/kg/day, Plasma 6 hr level, Day 14, Group 2: losartan via subcutaneous pump 40 mg/kg/day
  concentration at 6 h: 304 ng/mL
[2]; plasma, 40 mg/kg/day, Plasma 6 hr level, Day 19, Group 2: losartan via subcutaneous pump 40 mg/kg/day
  concentration at 6 h: 376 ng/mL
[2]; tumor, 40 mg/kg, Tumor 2 hr level, Day 14, Group 3: losartan subcutaneous injection without pump 40 mg/kg daily
  concentration at 2 h: 163 ng/mL
[2]; tumor, 40 mg/kg, Tumor 2 hr level, Day 19, Group 3: losartan subcutaneous injection without pump 40 mg/kg daily
  concentration at 2 h: 41 ng/mL
[2]; tumor, 40 mg/kg, Tumor 6 hr level, Day 14, Group 3: losartan subcutaneous injection without pump 40 mg/kg daily
  concentration at 6 h: 21 ng/mL
[2]; tumor, 40 mg/kg, Tumor 6 hr level, Day 19, Group 3: losartan subcutaneous injection without pump 40 mg/kg daily
  concentration at 6 h: 54 ng/mL
[2]; tumor, 40 mg/kg/day, Tumor 2 hr level, Day 14, Group 2: losartan via subcutaneous pump 40 mg/kg/day
  concentration at 2 h: 50 ng/mL
[2]; tumor, 40 mg/kg/day, Tumor 2 hr level, Day 19, Group 2: losartan via subcutaneous pump 40 mg/kg/day
  concentration at 2 h: 56.1 ng/mL
[2]; tumor, 40 mg/kg/day, Tumor 6 hr level, Day 14, Group 2: losartan via subcutaneous pump 40 mg/kg/day
  concentration at 6 h: 57 ng/mL
[2]; tumor, 40 mg/kg/day, Tumor 6 hr level, Day 19, Group 2: losartan via subcutaneous pump 40 mg/kg/day
  concentration at 6 h: 66 ng/mL
E0771 breast tumors
  CD31+ vessel density: did not affect
  vessel diameters: increased
E0771 tumors [3]; 12 nm nanoparticles
  effective permeability: improved
E0771 tumors [3]; 60 nm nanoparticles
  effective permeability: improved
E0771 tumors [3]; 125 nm nanoparticles
  effective permeability: improved
Mu89 tumors [4]
  increase in distribution of i.t.-injected nanoparticles: 4 fold
HSTS26T tumors [5]
  increase in distribution of i.t.-injected nanoparticles: 1.5 fold
Mu89 tumors [6]
  decrease in TSP-1 immunostaining: 24%
HSTS26T tumors [7]
  decrease in TSP-1 immunostaining: 73%
HSTS26T tumors [8]; 40 mg/kg/day i.p., multiphoton FRAP
  diffusion coefficient of IgG: significant increase
HSTS26T tumors [8]; calculated from IgG diffusion data, control 9.91±0.43 nm
  mean interstitial matrix pore radius: 11.78±0.41 nm
